Measured values: patent publication US9890146B2, “Compound having selective EP2 agonist activity” (ONO PHARMACEUTICAL CO., LTD., priority 2014, dated 2018)
Read-outs that look alike come from different tables or passages of the source.

Experiments:
[1] = tested on: male monkey (a cynomolgus monkey); test: Intraocular pressure lowering activity after ocular instillation; type: in vivo; settings: Primates, in Macaca fascicularis, topical, maximum rate during 24 hours after ocular instillation of 30 μL, conscious monkey; for inhibition in vivo at 100 µg/mL: administration concentration 100 μg/mL; for inhibition in vivo at 30 µg/mL: administration concentration 30 μg/mL; for inhibition in vivo at 10 µg/mL: administration concentration 10 μg/mL; for inhibition in vivo at 3 µg/mL: administration concentration 3 μg/mL
Protocol: As can be easily understood by a person skilled in the art, in an in vivo test, since regarding all test compounds, carboxylic acid which is an active body has poor corneal permeability, pharmacological action of the active body was evaluated by ocular instillation administration of a compound which had been converted into an ester such as an ethyl ester or an isopropyl ester, or an alcohol.
A test compound-containing solution (30 μL) which had been adjusted to each of various concentrations was ocular instillation-administered to the left or right eye of a male monkey (a cynomolgus monkey) under consciousness. An intraocular pressure after administration was measured with time from administration initiation to after 24 hours. Upon measurement of an intraocular pressure, a cynomolgus monkey was fixed on a monkey chair, and the monkey was anesthetized by ocular instillation-administering an ocular surface anesthetic (Benoxil eye drops 0.4% Santen Pharmaceutical Co., Ltd.). After mounting of a blepharostat (Handaya Co., Ltd.), an intraocular pressure of both eyes was measured (7 to 8 examples per group) using a pneumatic applanation flat tonometer (Model 30 Classic, REICHERT). A difference between an intraocular pressure value before the administration of a test substance and an intraocular pressure value after the administration of the test substance was calculated as an intraocular pressure lowering rate in accordance with the following equation, and the sustainability of intraocular eye lowering action was evaluated using a maximum intraocular pressure lowering rate during measurement.
The administered concentrations were determined based on the EP2 agonist activities measured by the above-mentioned method.

human EP2 = target: T1, human EP2 (Homo sapiens, UniProt P43116); test: Measurement of EP2 agonist activity (measurement of cAMP concentration); type: cell-based
T1 construct: expressed in transfected cells; host or cells: CHO cells (EP2-CHO)
Protocol: Using Chem1 cells or CHO cells in which various prostanoid receptors were forcibly expressed, respectively, agonist activities of test compounds on various prostanoid receptors was determined employing, as a measure, an intracellular cyclic AMP (hereinbelow, abbreviated as “cAMP”) production amount or an intracellular calcium concentration.
The test compound and a control substance (PGE2 and PGF2α) were dissolved in dimethyl sulfoxide (DMSO) to prepare a 10 mmol/L solution. The 10 mmol/L solution thus prepared was thawed upon use, then serially diluted with DMSO, and then diluted with a buffer solution for measurement use or a buffer solution for measurement use 2, and then the resulting solution was subjected to an experiment.
Cells forcibly expressing various prostanoid receptors were standing-cultured at 37° C. in the presence of 5% CO2 using a DMEM medium (Sigma) (for culturing FP-Chem1) containing inactivated (56° C., 30 minutes) 9.8 vol % nondialysed-FBS (Life Technologies), 1 vol % Non Essential Amino Acids (Life Technologies), 10 mmol/L HEPES Buffer Solution (Life Technologies), 0.5 vol % GENETICIN (Life Technologies) and 1% penicillin-streptomycin (Life Technologies) or an α-MEM medium (Sigma) (for culturing EP2-CHO) containing inactivated (56° C., 30 minutes) 9.8 vol % dialysed-FBS (Life Technologies) and penicillin-streptomycin-glutamine (Life Technologies). Subculturing was carried out by the following manner.
The medium was removed, and washed with a phosphate-buffered physiological saline not containing Ca^2+ and Mg^2+ one time. A proper amount of trypsin-EDTA (Life Technologies) was added, and this was incubated at room temperature, cells were peeled, and a medium having a volume which is 10-fold a volume of trypsin-EDTA was added to stop an enzymatic reaction. After cells were recovered into a centrifuging tube, and centrifuged at room temperature for 3 minutes at 120 g, the supernatant was removed. Cells were suspended in a proper amount of a medium, and seeded in a culturing flask.
On the measurement day, a medium was removed, and EP2-CHO was washed with a phosphate-buffered physiological saline containing 2 mmol/L EDTA and not containing Ca^2+ and Mg^2+ one time. A proper amount of the phosphate-buffered physiological saline containing 2 mmol/L EDTA and not containing Ca^2+ and Mg^2+ was added, this was incubated at 37° C. in the presence of 5% CO2, cells were peeled, cells were recovered into a centrifuging tube, and centrifuged at room temperature for 3 minutes at 550 g, and the supernatant was removed. Cells were suspended in a proper amount of a buffer solution for measurement 1 (MEM medium (Invitrogen) containing 1.0 w/v % bovine serum albumin (Sigma) and 2 μmol/L diclofenac (Sigma)), and centrifuged at room temperature for 3 minutes at 200 g, and the supernatant was removed. Cells were suspended in a buffer solution for measurement 2 (MEM medium (Invitrogen) containing 1.0 w/v % bovine serum albumin (Sigma), 2 μmol/L diclofenac (Sigma) and 1 mmol/L 3-isobutyl-1-methylxanthine), and each 25 μL of the suspension was dispensed into a 96-well ½ area plate so that the cell number per well became […]. A buffer solution for measurement 2 (25 μL) containing an agonist at a variety of concentrations was added to carry out a reaction at room temperature for 30 minutes. Measurement of a cAMP concentration was carried out using the cAMP HTRF HiRange kit (CIS bio International). According to the two step protocol of the kit manual, each 25 μL of cAMP-D2 and Cryptase diluted with a lysis buffer were added, and this was incubated at room temperature for 1 hour. After incubation for 1 hour, time resolution fluorescence at 620 nm and 660 nm when excited at 340 nm was measured using SpectraMax M5e (Molecular Device), and a ratio (TRF ratio) was obtained, thereby, a cAMP concentration was calculated from a calibration line. […]

[2] = prior-art compounds having an analogous structure, same EP2 test, read-out: EP2 agonist activities, EC50 values

T1 sequence (P43116 whole entry): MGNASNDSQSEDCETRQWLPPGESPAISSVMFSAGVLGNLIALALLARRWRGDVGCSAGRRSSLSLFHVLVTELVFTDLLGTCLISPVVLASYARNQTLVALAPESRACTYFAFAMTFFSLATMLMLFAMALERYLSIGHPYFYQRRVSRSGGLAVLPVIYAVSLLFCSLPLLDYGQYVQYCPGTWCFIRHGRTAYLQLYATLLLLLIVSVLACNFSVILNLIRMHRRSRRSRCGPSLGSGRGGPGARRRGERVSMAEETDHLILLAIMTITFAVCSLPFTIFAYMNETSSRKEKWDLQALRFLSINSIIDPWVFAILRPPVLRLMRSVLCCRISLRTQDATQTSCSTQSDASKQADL

OCc1csc([C@H]2CC[C@@H]3[C@@H](COc4ccc5c(c4)CCC5)[C@H](O)C[C@@H]3O2)n1 [2(4), (2R,4aR,5S,6R,7aS)-5-[(2,3-dihydro-1H-inden-5-yloxy)methyl]-2-[4-(hydroxymethyl)-1,3-thiazol-2-yl]octahydrocyclopenta[b]pyran-6-ol]
inhibition in vivo at 100 µg/mL [1]: 40%

OCc1csc([C@H]2CC[C@@H]3[C@@H](COc4ccc5[nH]ccc5c4)[C@H](O)C[C@@H]3O2)n1 [2(5), (2R,4aR,5S,6R,7aS)-2-[4-(hydroxymethyl)-1,3-thiazol-2-yl]-5-[(1H-indol-5-yloxy)methyl]octahydrocyclopenta[b]pyran-6-ol]
inhibition in vivo at 30 µg/mL [1]: 48%

OCc1csc([C@H]2CC[C@@H]3[C@@H](COc4ccc5c(c4)CC5)[C@H](O)C[C@@H]3O2)n1 [2(7), (2R,4aR,5S,6R,7aS)-5-[(bicyclo[4.2.0]octa-1,3,5-trien-3-yloxy)methyl]-2-[4-(hydroxymethyl)-1,3-thiazol-2-yl]octahydrocyclopenta[b]pyran-6-ol]
inhibition in vivo at 30 µg/mL [1]: 38%

OCc1csc([C@H]2CC[C@@H]3[C@@H](COc4ccc5ccoc5c4)[C@H](O)C[C@@H]3O2)n1 [2(8), (2R,4aR,5S,6R,7aS)-5-[(1-benzofuran-6-yloxy)methyl]-2-[4-(hydroxymethyl)-1,3-thiazol-2-yl]octahydrocyclopenta[b]pyran-6-ol]
inhibition in vivo at 30 µg/mL [1]: 55%

CCc1cc(OC[C@@H]2[C@H]3CC[C@H](c4nc(CO)cs4)O[C@H]3C[C@H]2O)ccc1C [2(9), (2R,4aR,5S,6R,7aS)-5-[(3-ethyl-4-methylphenoxy)methyl]-2-[4-(hydroxymethyl)-1,3-thiazol-2-yl]octahydrocyclopenta[b]pyran-6-ol]
inhibition in vivo at 10 µg/mL [1]: 52%

OCc1csc([C@H]2CC[C@@H]3[C@@H](COc4ccc(Cl)c(C5CC5)c4)[C@H](O)C[C@@H]3O2)n1 [2(10), (2R,4aR,5S,6R,7aS)-5-[(4-chloro-3-cyclopropylphenoxy)methyl]-2-[4-(hydroxymethyl)-1,3-thiazol-2-yl]octahydrocyclopenta[b]pyran-6-ol]
inhibition in vivo at 10 µg/mL [1]: 31%

Cc1ccc(OC[C@@H]2[C@H]3CC[C@H](c4nc(CO)cs4)O[C@H]3C[C@H]2O)cc1C [2(12), (2R,4aR,5S,6R,7aS)-5-[(3,4-dimethylphenoxy)methyl]-2-[4-(hydroxymethyl)-1,3-thiazol-2-yl]octahydrocyclopenta[b]pyran-6-ol]
inhibition in vivo at 10 µg/mL [1]: 43%

Cc1cc(OC[C@@H]2[C@H]3CC[C@H](c4nc(CO)cs4)O[C@H]3C[C@H]2O)ccc1Cl [2(13), (2R,4aR,5S,6R,7aS)-5-[(4-chloro-3-methylphenoxy)methyl]-2-[4-(hydroxymethyl)-1,3-thiazol-2-yl]octahydrocyclopenta[b]pyran-6-ol]
inhibition in vivo at 3 µg/mL [1]: 31%

OCc1csc([C@H]2CC[C@@H]3[C@@H](COc4cccc5c4CCC5)[C@H](O)C[C@@H]3O2)n1 [2(14), (2R,4aR,5S,6R,7aS)-5-[(2,3-dihydro-1H-inden-4-yloxy)methyl]-2-[4-(hydroxymethyl)-1,3-thiazol-2-yl]octahydrocyclopenta[b]pyran-6-ol]
inhibition in vivo at 30 µg/mL [1]: 45%

OCc1csc([C@H]2CC[C@@H]3[C@@H](COc4ccc5c(c4F)CCC5)[C@H](O)C[C@@H]3O2)n1 [2(16), (2R,4aR,5S,6R,7aS)-5-{[(4-fluoro-2,3-dihydro-1H-inden-S-yl)oxy]methyl}-2-[4-(hydroxymethyl)-1,3-thiazol-2-yl]octahydrocyclopenta[b]pyran-6-ol]
inhibition in vivo at 30 µg/mL [1]: 51%

CC(C)OC(=O)c1csc([C@H]2CC[C@@H]3[C@@H](COc4ccccc4)[C@H](O)C[C@@H]3O2)n1 [3(1), isopropyl 2-[(2R,4aR,5S,6R,7aS)-6-hydroxy-5-(phenoxymethyl)octahydrocyclopenta[b]pyran-2-yl]-1,3-thiazole-4-carboxylate]
inhibition in vivo at 100 µg/mL [1]: 28%

Cc1cc(OC[C@@H]2[C@H]3CC[C@H](c4nc(C(=O)OC(C)C)cs4)O[C@H]3C[C@H]2O)ccc1[N+](=O)[O-] [3(3), isopropyl 2-{(2R,4aR,5S,6R,7aS)-6-hydroxy-5-[(3-methyl-4-nitrophenoxy)methyl]octahydrocyclopenta[b]pyran-2-yl}-1,3-thiazole-4-carboxylate]
inhibition in vivo at 3 µg/mL [1]: 33%

CC(C)OC(=O)c1csc([C@H]2CC[C@@H]3[C@@H](COc4ccc5c(c4)CCC5)[C@H](O)C[C@@H]3O2)n1 [3(4)]
inhibition in vivo at 30 µg/mL [1]: 35%

OCc1csc([C@H]2CC[C@@H]3[C@@H](COc4ccc5c(c4)CCC5)[C@@H](O)C[C@@H]3O2)n1 [10(1), (2R,4aR,5S,6S,7aS)-5-[(2,3-dihydro-1H-inden-5-yloxy)methyl]-2-[4-(hydroxymethyl)-1,3-thiazol-2-yl]octahydrocyclopenta[b]pyran-6-ol]
inhibition in vivo at 3 µg/mL [1]: 29%

CCc1cc(OC[C@@H]2[C@H]3CC[C@H](c4nc(CO)cs4)O[C@H]3C[C@@H]2O)ccc1C [10(3), (2R,4aR,5S,6S,7aS)-5-[(3-ethyl-4-methylphenoxy)methyl]-2-[4-(hydroxymethyl)-1,3-thiazol-2-yl]octahydrocyclopenta[b]pyran-6-ol]
inhibition in vivo at 1 µg/mL ([1]; administration concentration 1 μg/mL): 49%

O=C(O)c1csc([C@H]2CC[C@@H]3[C@@H](COc4ccc(C5CC5)c(C5CC5)c4)[C@@H](O)C[C@@H]3O2)n1 [Example 9, 2-{(2R,4aR,5S,6S,7aS)-5-[(3,4-dicyclopropylphenoxy)methyl]-6-hydroxyoctahydrocyclopenta[b]pyran-2-yl}-1,3-thiazole-4-carboxylic acid]
EC50 (human EP2; EP2-CHO cells, cAMP production (HTRF), reaction 30 minutes at room temperature, read-out: EP2 agonist activity EC50): 0.0028 µM

O=C(O)c1csc([C@H]2CC[C@@H]3[C@@H](/C=C/[C@@H](O)COc4ccccc4)[C@H](O)C[C@@H]3OC2)n1 [reference compound]
EC50 (human EP2; [2]): ≥ 10 µM

O=C(O)c1ccc(C2=CC[C@@H]3[C@@H](/C=C/[C@@H](O)C4CCCC4)[C@H](O)C[C@@H]3O2)o1 [reference compound]
EC50 (human EP2; [2]): ≥ 10 µM

CCCCC[C@H](O)/C=C/[C@@H]1[C@H]2CCC(c3ccccc3CC(=O)O)O[C@H]2C[C@H]1O (stereo partly shown) [reference compound]
EC50 (human EP2; [2]): ≥ 10 µM
